# Results taken from patent publication US20210395239A1 (Hoffmann-La Roche Inc., priority 2018, published 2021).
# pIC50: −log10 of the molar value.
# Molecular target: T1, human TLR7 (Homo sapiens, UniProt Q9NYK1)
# T1 construct: host or cells: HEK293 (HEK-Blue hTLR7)
# T1 sequence (Q9NYK1 27-1049): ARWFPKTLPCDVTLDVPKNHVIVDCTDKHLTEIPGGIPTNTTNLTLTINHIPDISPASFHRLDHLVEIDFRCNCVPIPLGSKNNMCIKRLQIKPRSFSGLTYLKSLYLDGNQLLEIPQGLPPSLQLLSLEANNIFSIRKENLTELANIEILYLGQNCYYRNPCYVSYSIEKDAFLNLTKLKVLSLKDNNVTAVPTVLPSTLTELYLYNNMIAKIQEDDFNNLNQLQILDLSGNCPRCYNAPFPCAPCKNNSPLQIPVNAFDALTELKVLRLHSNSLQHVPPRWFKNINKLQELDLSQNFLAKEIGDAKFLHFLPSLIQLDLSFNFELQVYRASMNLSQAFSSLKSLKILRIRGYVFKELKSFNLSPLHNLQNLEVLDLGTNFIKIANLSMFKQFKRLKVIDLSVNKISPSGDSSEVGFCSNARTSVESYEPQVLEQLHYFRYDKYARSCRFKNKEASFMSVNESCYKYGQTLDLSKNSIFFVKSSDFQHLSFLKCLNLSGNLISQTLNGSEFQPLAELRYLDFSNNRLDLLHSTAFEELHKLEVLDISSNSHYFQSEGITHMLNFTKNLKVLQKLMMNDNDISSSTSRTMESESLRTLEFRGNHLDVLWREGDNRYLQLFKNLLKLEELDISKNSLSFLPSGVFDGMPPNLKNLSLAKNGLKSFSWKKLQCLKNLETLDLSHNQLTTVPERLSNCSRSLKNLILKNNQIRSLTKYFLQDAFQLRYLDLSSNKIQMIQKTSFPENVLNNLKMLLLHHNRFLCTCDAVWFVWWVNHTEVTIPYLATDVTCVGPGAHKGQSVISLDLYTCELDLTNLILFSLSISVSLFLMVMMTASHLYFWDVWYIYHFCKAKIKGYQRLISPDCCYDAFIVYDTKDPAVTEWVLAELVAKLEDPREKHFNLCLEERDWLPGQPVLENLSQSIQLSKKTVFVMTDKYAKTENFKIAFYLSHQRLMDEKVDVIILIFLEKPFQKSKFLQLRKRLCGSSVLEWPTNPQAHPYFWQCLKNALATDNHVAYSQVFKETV
# Experiment: HEK293-Blue-hTLR-7 cells assay (SEAP reporter, R848 stimulation)
# Format: cell-based
# Settings: HEK293-Blue-hTLR7 cells, R848, 20 hrs; read-out: HEK/hTLR7 IC50
# Outline: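 HEK293-Blue-hTLR7 cells (NF-κB/AP-1-driven SEAP reporter) were stimulated with R848 alongside serially diluted compound at 1% final DMSO for 20 h at 37 °C. Supernatant SEAP was then developed with QUANTI-Blue for 2 h at 37 °C and absorbance read at 620–655 nm; antagonism is measured as reduced reporter signal.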
row,SMILES,pIC50
1,"[2H]c1nc2c(C#N)ccc(N3C[C@H](CN4CCN(c5nc(C)cc(N6CC(N)C6)n5)CC4)O[C@H](C)C3)c2nc1[2H] [Example 124, 8-[(2S,6R)-2-[[4-[4-(3-aminoazetidin-1-yl)-6-methyl-pyrimidin-2-yl]piperazin-1-yl]methyl]-6-methyl-morpholin-4-yl]-2,3-dideuterio-quinoxaline-5-carbonitrile]",8.30
2,"Cc1cc(N2C[C@@H](N)[C@](C)(O)C2)nc(N2CCN(C[C@H]3CN(c4ccc(C#N)c5nccnc45)C[C@@H](C)O3)CC2)n1 [Example 125, 8-[(2S,6R)-2-[[4-[4-[(3R,4R)-4-amino-3-hydroxy-3-methyl-pyrrolidin-1-yl]-6-methyl-pyrimidin-2-yl]piperazin-1-yl]methyl]-6-methyl-morpholin-4-yl]quinoxaline-5-carbonitrile]",7.33
3,"Cc1ccc(N2C[C@H](CN3CCN(c4ccnc(N5CC6(CNCCO6)C5)n4)CC3)O[C@H](C)C2)c2nccnc12 [Example 126, 2-[4-[4-[[(2S,6R)-6-methyl-4-(8-methylquinoxalin-5-yl)morpholin-2-yl]methyl]piperazin-1-yl]pyrimidin-2-yl]-5-oxa-2,8-diazaspiro[3.5]nonane]",7.68
4,"Cc1ccc(N2C[C@H](CN3CCN(c4ccnc(N5CCN[C@@H](C)C5)n4)CC3)O[C@H](C)C2)c2nccnc12 [Example 127, (2R,6S)-2-methyl-6-[[4-[2-[(3S)-3-methylpiperazin-1-yl]pyrimidin-4-yl]piperazin-1-yl]methyl]-4-(8-methylquinoxalin-5-yl)morpholine]",7.54
5,"Cc1ccc(N2C[C@H](CN3CCN(c4ccnc(N5CCN[C@H](C)C5)n4)CC3)O[C@H](C)C2)c2nccnc12 [Example 128, (2R,6S)-2-methyl-6-[[4-[2-[(3R)-3-methylpiperazin-1-yl]pyrimidin-4-yl]piperazin-1-yl]methyl]-4-(8-methylquinoxalin-5-yl)morpholine]",7.52
6,"Cc1ccc(N2C[C@H](CN3CCN(c4ccnc(N5C[C@H]6NCCO[C@@H]6C5)n4)CC3)O[C@H](C)C2)c2nccnc12 [Example 129, (4aR,7aR)-6-[4-[4-[[(2S,6R)-6-methyl-4-(8-methylquinoxalin-5-yl)morpholin-2-yl]methyl]piperazin-1-yl]pyrimidin-2-yl]-3,4,4a,5,7,7a-hexahydro-2H-pyrrolo[3,4-b][1,4]oxazine]",7.70
7,"Cc1ccc(N2C[C@H](CN3CCN(c4ccnc(N5CC(N)C5)n4)CC3)O[C@H](C)C2)c2nccnc12 [Example 130, 1-[4-[4-[[(2S,6R)-6-methyl-4-(8-methylquinoxalin-5-yl)morpholin-2-yl]methyl]piperazin-1-yl]pyrimidin-2-yl]azetidin-3-amine]",7.80
8,"[2H]c1ccc2c(N3C[C@H](CN4CCN(c5nc(OC)cc(N6CC(C)(N)C6)n5)CC4)O[C@H](C)C3)ccc(C#N)c2n1 [Example 131, 5-[(2S,6R)-2-[[4-[4-(3-amino-3-methyl-azetidin-1-yl)-6-methoxy-pyrimidin-2-yl]piperazin-1-yl]methyl]-6-methyl-morpholin-4-yl]-2-deuterio-quinoline-8-carbonitrile]",7.49
9,"[2H]c1ccc2c(N3C[C@H](CN4CCN(c5ccc(N6CC(C)(N)C6)nc5)CC4)O[C@H](C)C3)ccc(C#N)c2n1 [Example 132, 5-[(2S,6R)-2-[[4-[6-(3-amino-3-methyl-azetidin-1-yl)-3-pyridyl]piperazin-1-yl]methyl]-6-methyl-morpholin-4-yl]-2-deuterio-quinoline-8-carbonitrile]",7.64
10,"[2H]c1ccc2c(N3C[C@H](CN4CCN(c5cnc(N6CC(C)(N)C6)cc5C)CC4)O[C@H](C)C3)ccc(C#N)c2n1 [Example 133, 5-[(2S,6R)-2-[[4-[6-(3-amino-3-methyl-azetidin-1-yl)-4-methyl-3-pyridyl]piperazin-1-yl]methyl]-6-methyl-morpholin-4-yl]-2-deuterio-quinoline-8-carbonitrile]",7.39
